From patent publication US20200199647A1, “ASSAY FOR SCREENING MODULATORS OF HOLOPHOSPHATASE ACTIVITY” (UNITED KINGDOM RESEARCH AND INNOVATION, priority 2017, published 2020)

Key:
R15B-PP1c = biological target: T1, R15B-PP1c (Homo sapiens, UniProt Q5SWA1); assay: In vitro dephosphorylation of P-eIF2α by recombinant R15B-PP1c holophosphatase (10 nM PP1c); format: biochemical; settings: PP1c 10 nM, 1 μM P-eIF2α, compounds 100 μM, 30° C., 16 h
T1 construct: PPP1R15B amino acids 340-698 (R15B); His6 (C); made in house; host or cells: E. coli BL21 pLysS (R15B, eIF2α); E. coli BL21/pGro7 (PP1c)
T1 sequence (P62136 7-330 partner limits assumed, one chain of several): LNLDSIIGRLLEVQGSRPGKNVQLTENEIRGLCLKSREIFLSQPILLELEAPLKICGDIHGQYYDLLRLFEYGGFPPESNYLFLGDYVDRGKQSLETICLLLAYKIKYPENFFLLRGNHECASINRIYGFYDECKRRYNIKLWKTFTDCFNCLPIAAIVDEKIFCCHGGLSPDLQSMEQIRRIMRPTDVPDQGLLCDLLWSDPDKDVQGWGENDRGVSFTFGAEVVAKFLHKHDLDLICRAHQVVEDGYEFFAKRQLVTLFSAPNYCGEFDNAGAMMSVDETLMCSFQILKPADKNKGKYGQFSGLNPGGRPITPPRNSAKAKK
Protocol: PP1c was diluted to the appropriate concentration (as indicated in the figure legends) in dephosphorylation buffer immediately prior to use. Dephosphorylation reactions were carried out by pre-incubating diluted PP1c in the presence or absence of regulatory subunits (either […]), and/or compounds (all at 100 μM, except for Salubrinal which was used at 30 μM), for 15′ at RT. All compounds were diluted in DMSO, and DMSO vehicle was used in all control experiments.
The reaction was initiated by the addition of 1 μM P-eIF2α or ^33P Phosphorylase a substrates and then incubated at 30° C. for 16 h with shaking at 350 rpm. Reactions were stopped by addition of 4× Laemmli sample buffer. eIF2α samples were analyzed by immunoblotting or Phos-tag gels. P-eIF2α dephosphorylation was analysed by immunoblotting using anti-Phospho-eIF2α (SerS1) (#9721) (Cell Signaling) and anti-eIF2α (ab26197) (AbCam) antibodies. Samples in FIG. 8 and FIG. 16 were run on a 15% SuperSep Phos-tag acrylamide gel (Alpha Laboratories) and visualized by staining with InstantBlue Protein Stain.

R15A [1] = biological target: T2, R15A (Homo sapiens, UniProt O75807); assay: Pull-down: binding of P-eIF2α to MBP-tagged R15A on amylose beads; settings: 200 μM compound, 200 nM MBP-R15A, 1 μM P-eIF2α, 10 min 4° C.
T2 construct: PPP1R15A amino acids 325-636 (R15A); His6 (C); made in house; host or cells: E. coli BL21 pLysS
T2 sequence (O75807 325-636, stated change not applied): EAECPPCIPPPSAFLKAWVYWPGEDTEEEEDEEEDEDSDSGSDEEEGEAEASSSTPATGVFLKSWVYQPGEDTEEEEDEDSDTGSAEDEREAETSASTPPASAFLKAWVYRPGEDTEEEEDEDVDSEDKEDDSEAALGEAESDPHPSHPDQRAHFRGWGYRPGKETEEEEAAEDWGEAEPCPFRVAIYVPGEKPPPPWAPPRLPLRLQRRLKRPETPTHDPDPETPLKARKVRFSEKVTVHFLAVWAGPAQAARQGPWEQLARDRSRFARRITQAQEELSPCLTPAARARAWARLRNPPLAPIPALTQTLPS
Protocol: (§1) Purified MBP-tagged regulatory subunits (200 nM), P-eIF2α (1 μM), PP1c ([…]), and 200 μM compounds, or DMSO vehicle, were added as appropriate to 20 μl amylose magnetic bead, pre-equilibrated with interaction buffer (50 mM Tris (pH 7.4), 200 mM NaCl, 0.05% Tween20) in 200 μl volume. All protein dilutions were carried out in interaction buffer. 5% input sample was removed, and added to 4× Laemmli sample buffer for later analysis. The beads were incubated for 10′ at 4° C. The supernatant was removed, and the beads were washed thoroughly with interaction buffer and then resuspended with 50 μl of 2× Laemmli sample buffer. Samples were run on 4-12% NuPAGE Bis-Tris gels (Life Technologies) and analysed by immunoblotting, using anti-MBP HRP (E8038) (NEB), anti-eIF2α (ab26197) (AbCam) or anti-PPP1A (ab137512) (AbCam) antibodies.

R15A [2] = biological target: T2, R15A; assay: Limited trypsin proteolysis of R15A (conformational change); settings: 22° C.
Protocol: Reactions were allowed to proceed at 22° C. with shaking at 350 rpm. At time points 30 min, 1 h, 2 h or 3 h, 30 μl of sample was removed from the mix and digestion was stopped by addition of 10 μl of 16% SDS Laemmli sample buffer. Samples were run on 4-12% NuPAGE Bis-Tris gels (Life Technologies). Proteins were visualised by staining with InstantBlue Coomassie Protein Stain (Expedeon) protein stain.
Purified R15A and R15B were diluted to 3 μM in PBS, and incubated for 15′ at RT with 100 μM Raphin1, or DMSO vehicle. Reactions were initiated by addition of 5 nM of trypsin from bovine pancreas (Sigma), made up in PBS, and allowed to proceed for 5′ at 22° C., with shaking at 350 rpm. Digestion was stopped by addition of 4× Laemmli sample buffer and samples were run on 4-12% NuPAGE Bis-Tris gels (Life Technologies). Proteins were visualised by staining with InstantBlue Protein Stain.

R15B = biological target: T3, R15B (Homo sapiens, UniProt Q5SWA1); assay: Pull-down: binding of P-eIF2α to MBP-tagged R15B on amylose beads; settings: 200 μM compound, 200 nM MBP-R15B, 1 μM P-eIF2α, 10 min 4° C.
T3 construct: PPP1R15B amino acids 340-698 (R15B); His6 (C); made in house; host or cells: E. coli BL21 pLysS
T3 sequence (Q5SWA1 340-698): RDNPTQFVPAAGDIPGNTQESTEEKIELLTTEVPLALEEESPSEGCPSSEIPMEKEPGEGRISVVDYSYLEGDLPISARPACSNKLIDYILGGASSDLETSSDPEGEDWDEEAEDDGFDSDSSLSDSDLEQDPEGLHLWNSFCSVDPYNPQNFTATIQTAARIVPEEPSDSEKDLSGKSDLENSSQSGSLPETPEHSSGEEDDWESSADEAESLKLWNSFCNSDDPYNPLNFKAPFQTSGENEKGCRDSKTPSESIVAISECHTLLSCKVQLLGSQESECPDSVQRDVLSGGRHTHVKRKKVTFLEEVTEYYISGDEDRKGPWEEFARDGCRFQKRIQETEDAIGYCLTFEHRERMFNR
Protocol: as §1

HeLa cells = assay: Cytoprotection of HeLa cells from Tunicamycin (ER) stress; format: cell-based; settings: 250 ng/ml Tunicamycin, 72 h
Protocol: HeLa cells (40,000 cells/ml) were plated in a 96-well plate and treated with different concentrations of compound, as indicated, or DMSO vehicle in the presence of 250 ng/ml Tunicamycin for 72 h. To monitor cell death, 1/2000 dilution of the CellTox green dye (Promega) was added to the media. The growth of the cells was monitored over time and pictures taken every 2 h with the IncuCyte ZOOM system and analysed by the IncuCyte ZOOM software (Essen BioScience). To compare different compounds and their cytoprotective effect, a growth ratio for each time point was calculated:
Growth ratio=(Phase confluency (%) at X hours)/(Phase confluency (%) at 0 hours)
The end point of the assay (72 h) was chosen for generating the graphs.

Row | Compound | inhibition of R15B-PP1c eIF2α holophosphatase (R15B-PP1c) | effect on binding of eIF2α to R15A (R15A [1]) | sensitivity of R15A to trypsin proteolysis (R15A [2]; 100 μM compound, 0.5 μM R15A, 2.5 nM trypsin, 30 min to 3 h) | effect on binding of eIF2α to R15B (R15B) | cytoprotection from ER stress (HeLa cells) | trypsin sensitivity of R15A (R15A [2]; 100 μM Raphin1, 3 μM R15A, 5 nM trypsin, 5 min)
1 | N=C(N)N/N=C/c1c(Cl)cccc1Cl [Guanabenz] | not R15B-PP1c | decreased the binding of R15A to eIF2α | decreased the sensitivity of R15A to trypsin proteolysis | no such effect was observed | Dose dependent cytoprotection | 
2 | NC(N)=N/N=C/c1cccc(Cl)c1Cl [Raphin1] | selectively inhibited R15B-PP1c | this inhibition was not observed with R15A |  | decreased the binding of eIF2α to R15B |  | had no effect on the trypsin sensitivity of R15A
